Measured values published in US20220184059A1, “PROCESS FOR PREPARING SPHERICAL AGGLOMERATES OF TIMAPIPRANT” (Chiesi Farmaceutici S.p.A., priority 2018, published 2022).
Values joined by “and” are separate entries in the source; they are usually repeats but may differ in a detail not shown here. Equal entries are not always repeated. Where two headings read alike, the source gives them in different places.

Experiments:
[1] = Specific surface area (SSA) by BET nitrogen adsorption; type: physicochemical
Protocol: The specific surface areas (SSA) of spherical agglomerates of timapiprant obtained according to Examples 3, 5,7 and the micronized timapiprant were measured was determined by BET nitrogen adsorption using the TriStar of Micromeritics apparatus according to following parameters: • Isotherm, Adsorbing/Desorbing Run: 0 to 1 p/p0 • Vials: ⅜ Inch, Degasing Pre-analysis: 2 hours at 40° C., Nitrogen as adsorbate • Preparation: Evacuation Rate 10 mmHg/s; Unrestricted evacuation from 5 mmHg • Vacuum setpoint: 10 mmHg, Evacuation time: 1 hour • Leak Test Duration: 120 s, Outgas Test Duration: 180 s • Measure p0 at intervals during the analysis, Enter the analysis bath temperature: […]77 kelvin • Equilibration Interval: 5 s; Minimum Equilibration Delay at p/p0>=0.995 per 600 s.

[2] = Primary particle size distribution by laser diffraction after break up of spherical agglomerates; type: physicochemical; details: primary particles; for PSD d (0.1), Mean result / PSD d (0.5), Mean result: mean of 10 acquisitions
Protocol: The primary particle size distribution results are produced by means of a Malvern 2000 laser diffraction equipment by the analysis of the primary particles in suspension.
The particle size distribution laser diffraction measures were performed using a Malvern Mastersizer 2000 equipped with a Hydro 2000S cell for the wet suspension of the Timapiprant primary particles. The spherical agglomerates obtained according to the Examples 3 and 5, were dispersed in water by means of 10 minutes sonication and then added to the cell, previously filled with water, until an obscuration within 5-10% was obtained. The stirring rate was set at 1500 rpm and each of the suspensions produced were analysed by 10 acquisitions, the results are reported in Tables 1 and 2.

[3] = Flowability of blend material with excipients; type: physicochemical; details: for Flowability (s/100 g): blend material of API with excipients of Table 3; for Flow properties of blend: blend material of API with excipients
Protocol: The spherical agglomerates of timapiprant or the micronized timapiprant, together with the microcrystalline cellulose, the croscarmellose sodium, the poloxamer, the sodium lauryl sulphate and the colloidal silicon dioxide in the above amounts, are sieved in a sieve of 1.2 mm. The lactose monohydrate is then added, and the resulting mixture is blended in a free fall blender for at least 15 minutes. The magnesium stearate is added to the obtained mixture which is further blended in the free fall blender for additional 3 minutes.

[4] = molecular target: T1, prostaglandin D2 receptor (CRTH2) (Homo sapiens, UniProt Q9Y5Y4); details: cited from earlier work
T1 sequence (Q9Y5Y4 1-395): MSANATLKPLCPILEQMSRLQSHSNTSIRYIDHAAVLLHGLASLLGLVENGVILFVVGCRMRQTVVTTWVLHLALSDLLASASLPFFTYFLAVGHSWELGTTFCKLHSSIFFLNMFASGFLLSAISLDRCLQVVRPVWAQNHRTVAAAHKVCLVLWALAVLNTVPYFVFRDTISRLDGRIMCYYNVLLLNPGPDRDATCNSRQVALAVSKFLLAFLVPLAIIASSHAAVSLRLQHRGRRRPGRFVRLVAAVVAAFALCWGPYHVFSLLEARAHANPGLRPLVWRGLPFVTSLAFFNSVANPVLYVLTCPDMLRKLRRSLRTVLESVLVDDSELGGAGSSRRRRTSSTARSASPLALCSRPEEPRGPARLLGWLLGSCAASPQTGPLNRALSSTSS

[5] = tested on: human Th2 lymphocytes and eosinophils; details: cited from earlier work
[6] = tested on: patients with atopic eosinophilic asthma; details: cited from earlier work
[7] = agglomerates dispersed in water by 10 minutes sonication, single acquisition

Cc1c(Cc2ccc3ccccc3n2)c2cc(F)ccc2n1CC(=O)O [Example 7, (5-fluoro-2-methyl-3-quinolin-2-yl-methyl-indol-1-yl)acetic acid]
SSA (m^2/g) ([1]; listed as Spherical agglomerates of timapiprant of Example 7): 15.5 m^2/g

Cc1c(Cc2ccc3ccccc3n2)c2cc(F)ccc2n1CC(=O)O [Example 5, (5-fluoro-2-methyl-3-quinolin-2-yl-methyl-indol-1-yl)acetic acid]
PSD d (0.5) [2, 7]: 0.64 μm
PSD d (0.1), Mean result [2]: 0.31 μm
PSD d (0.5), Mean result [2]: 0.64 μm
Flowability (s/100 g) ([3]; listed as Spherical agglomerates of timapirpant): 4 sec s/100 g
Flow properties of blend ([3]; listed as spherical agglomerates of timapiprant): good flowability
SSA (m^2/g) ([1]; listed as Spherical agglomerates of timapiprant of Example 5): 10.1 m^2/g

Cc1c(Cc2ccc3ccccc3n2)c2cc(F)ccc2n1CC(=O)O [Example 3, (5-fluoro-2-methyl-3-quinolin-2-yl-methyl-indol-1-yl)acetic acid]
PSD d (0.1) [2, 7]: 0.28 μm
PSD d (0.5) [2, 7]: 0.56 μm
PSD d (0.1), Mean result [2]: 0.28 μm
PSD d (0.5), Mean result [2]: 0.56 μm
SSA (m^2/g) ([1]; listed as Spherical agglomerates of timapiprant of Example 3): 13.1 m^2/g

Cc1c(Cc2ccc3ccccc3n2)c2cc(F)ccc2n1CC(=O)O [timapiprant]
CRTH2 antagonist activity [4]: potent, selective, and orally active prostaglandin D2 receptor (CRTH2) antagonist
Inhibition of mast cell-dependent activation [5]: inhibits mast cell-dependent activation of both human Th2 lymphocytes and eosinophils
Clinical efficacy [6]: effective in reducing airway inflammation and improving lung function and quality of life

Cc1c(Cc2ccc3ccccc3n2)c2cc(F)ccc2n1CC(=O)O [Micronized Timapiprant, reference compound]
Flow properties of blend [3]: very poor flow properties
Flowability (s/100 g) [3]: ∞
SSA (m^2/g) [1]: 8.0 m^2/g and 7.8 m^2/g
SSA (m^2/g) ([1]; listed as micronized timapiprant): less than 8.5 m^2/g
